Laboratory results from the supplement of paper PMC8976852.
± gives the standard deviation of the averaged measurements.

What was measured:
Experiment in all cases: activity (1 - area under the dose-response curve within the screened range) (fraction); higher = more sensitive
Conditions in all cases: treatment time: 72 h
HCM-SANG-0266-C20 = tested on: HCM-SANG-0266-C20 (colorectal cancer organoid)
Description: (§1)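 Patient-derived cancer organoids (colorectal and oesophageal, HCM-SANG models) were grown for up to 6 months in 5% or 80% ECM (BME-2), then seeded in 384-well plates on an ECM layer and treated with 72 compounds for 3 days. Each compound used a 7-point half-log dilution series spanning a 1000-fold range, in technical triplicate and biological duplicate. Dose-response curves were fitted with a non-linear mixed effects model; fits with RMSE > 0.3 were removed, and activity = 1 - AUC within the screened dose range (0 = no activity, 1 = maximum).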

HCM-SANG-0532-C20 = tested on: HCM-SANG-0532-C20 (colorectal cancer organoid)
Description: as §1

HCM-SANG-0291-C15 = tested on: HCM-SANG-0291-C15 (oesophageal cancer organoid)
Description: as §1

HCM-SANG-0270-C20 = tested on: HCM-SANG-0270-C20 (colorectal cancer organoid)
Description: as §1

[1] = ECM percentage in culture prior to screening 5 %
[2] = ECM percentage in culture prior to screening 80 %

| SMILES | activity (HCM-SANG-0266-C20; [1]) | activity (HCM-SANG-0266-C20; [2]) | activity (HCM-SANG-0532-C20; [1]) | activity (HCM-SANG-0532-C20; [2]) | activity (HCM-SANG-0291-C15; [1]) | activity (HCM-SANG-0291-C15; [2]) | activity (HCM-SANG-0270-C20; [1]) | activity (HCM-SANG-0270-C20; [2]) |
| --- | --- | --- | --- | --- | --- | --- | --- | --- |
| O=c1cc(N2CCOCC2)oc2c(-c3cccc4c3sc3ccccc34)cccc12 [NU7441] | 0.104 ± 0.032 | 0.063 ± 0.018 | 0.124 ± 0.045 | 0.119 ± 0.022 | 0.0932 ± 0.037 | 0.0809 ± 0.029 | 0.0446 ± 0.03 | 0.0686 ± 0.032 |
| CC1(C)CCC(c2ccc(Cl)cc2)=C(CN2CCN(c3ccc(C(=O)NS(=O)(=O)c4ccc(N[C@H](CCN5CCOCC5)CSc5ccccc5)c(S(=O)(=O)C(F)(F)F)c4)cc3)CC2)C1 [Navitoclax] | 0.327 ± 0.03 | 0.358 ± 0.051 | 0.314 ± 0.045 | 0.288 ± 0.075 | 0.125 ± 0.032 | 0.121 ± 0.029 | 0.201 ± 0.033 | 0.188 ± 0.047 |
| Cc1cn(-c2cc(NC(=O)c3ccc(C)c(Nc4nccc(-c5cccnc5)n4)c3)cc(C(F)(F)F)c2)cn1 [Nilotinib] | 0.0558 ± 0.029 | 0.0445 ± 0.025 | 0.111 ± 0.036 | 0.104 ± 0.021 | 0.0659 ± 0.035 | 0.0726 ± 0.03 | 0.0302 ± 0.0098 | 0.0451 ± 0.018 |
| COc1ccc(C2=N[C@@H](c3ccc(Cl)cc3)[C@@H](c3ccc(Cl)cc3)N2C(=O)N2CCNC(=O)C2)c(OC(C)C)c1 [Nutlin-3a (-)] | 0.218 ± 0.046 | 0.193 ± 0.064 | 0.148 ± 0.039 | 0.203 ± 0.054 | 0.0424 ± 0.021 | 0.0359 ± 0.015 | 0.161 ± 0.034 | 0.0722 ± 0.033 |
| COc1cccc2cc(-c3nc([C@H]4CC[C@H](C(=O)O)CC4)n4ncnc(N)c34)[nH]c12 [OSI-027] | 0.141 ± 0.054 | 0.0937 ± 0.059 | 0.0577 ± 0.024 | 0.0906 ± 0.013 | 0.0395 ± 0.012 | 0.032 ± 0.014 | 0.0587 ± 0.034 | 0.0504 ± 0.036 |
| O=C(c1cc(Cc2n[nH]c(=O)c3ccccc23)ccc1F)N1CCN(C(=O)C2CC2)CC1 [Olaparib] | 0.0602 ± 0.028 | 0.0424 ± 0.017 | 0.0528 ± 0.018 | 0.0726 ± 0.027 | 0.0587 ± 0.015 | 0.0412 ± 0.017 | 0.0818 ± 0.017 | 0.0664 ± 0.027 |
| O=C(O)C(=O)O.[NH-][C@@H]1CCCC[C@H]1[NH-].[Pt+2] [Oxaliplatin] | 0.0673 ± 0.036 | 0.0486 ± 0.022 | 0.0448 ± 0.016 | 0.0692 ± 0.031 | 0.0391 ± 0.022 | 0.0459 ± 0.025 | 0.0594 ± 0.018 | 0.0493 ± 0.038 |
| COCC1(CO)C(=O)C2CCN1CC2 (centres undefined) [PRIMA-1MET] | 0.0344 ± 0.016 | 0.0318 ± 0.016 | 0.074 ± 0.023 | 0.0388 ± 0.016 | 0.0344 ± 0.019 | 0.0328 ± 0.011 | 0.0251 ± 0.01 | 0.0283 ± 0.0083 |
| CC(=O)O[C@H]1C(=O)[C@@]2(C)[C@H]([C@H](OC(=O)c3ccccc3)[C@]3(O)C[C@H](OC(=O)[C@H](O)[C@@H](NC(=O)c4ccccc4)c4ccccc4)C(C)=C1C3(C)C)[C@]1(OC(C)=O)CO[C@@H]1C[C@@H]2O [Paclitaxel] | 0.331 ± 0.06 | 0.317 ± 0.067 | 0.138 ± 0.058 | 0.256 ± 0.031 | 0.246 ± 0.044 | 0.27 ± 0.066 | 0.223 ± 0.051 | 0.218 ± 0.084 |
| CC(=O)c1c(C)c2cnc(Nc3ccc(N4CCNCC4)cn3)nc2n(C2CCCC2)c1=O [Palbociclib] | 0.0791 ± 0.052 | 0.0779 ± 0.05 | 0.0593 ± 0.019 | 0.102 ± 0.034 | 0.0779 ± 0.033 | 0.0409 ± 0.013 | 0.0934 ± 0.03 | 0.0559 ± 0.031 |
| Nc1nc2[nH]cc(CCc3ccc(C(=O)N[C@@H](CCC(=O)O)C(=O)O)cc3)c2c(=O)[nH]1 [Pemetrexed] | 0.0697 ± 0.056 | 0.0926 ± 0.047 | 0.0604 ± 0.023 | 0.0425 ± 0.012 | 0.0737 ± 0.036 | 0.0434 ± 0.025 | 0.117 ± 0.049 | 0.164 ± 0.1 |
| CS(=O)(=O)N1CCN(Cc2cc3nc(-c4cccc5[nH]ncc45)nc(N4CCOCC4)c3s2)CC1 [Pictilisib] | 0.198 ± 0.059 | 0.152 ± 0.068 | 0.12 ± 0.07 | 0.155 ± 0.039 | 0.0595 ± 0.032 | 0.0514 ± 0.019 | 0.0973 ± 0.037 | 0.0554 ± 0.033 |
| O=C1NC(=NCc2cccs2)S/C1=C\c1ccc2ncccc2c1 [RO-3306] | 0.123 ± 0.017 | 0.152 ± 0.035 | 0.117 ± 0.033 | 0.108 ± 0.016 | 0.0636 ± 0.017 | 0.0709 ± 0.026 | 0.0909 ± 0.041 | 0.0974 ± 0.033 |
| CN(C)C(=O)c1cc2cnc(Nc3ccc(N4CCNCC4)cn3)nc2n1C1CCCC1 [Ribociclib] | 0.0335 ± 0.011 | 0.0512 ± 0.053 | 0.0436 ± 0.036 | 0.0301 ± 0.0069 | 0.0289 ± 0.0084 | 0.0323 ± 0.016 | 0.046 ± 0.028 | 0.0291 ± 0.019 |
| N#CC[C@H](C1CCCC1)n1cc(-c2ncnc3[nH]ccc23)cn1 [Ruxolitinib] | 0.0203 ± 0.00098 | 0.03 ± 0.01 | 0.0295 ± 0.011 | 0.0236 ± 0.0026 | 0.0206 ± 0.0044 | 0.0196 ± 0.0023 | 0.0225 ± 0.0051 | 0.0229 ± 0.007 |
| CNC(=O)CN1CCC(Oc2cc3c(Nc4cccc(Cl)c4F)ncnc3cc2OC)CC1 [Sapitinib] | 0.255 ± 0.081 | 0.121 ± 0.1 | 0.119 ± 0.038 | 0.179 ± 0.043 | 0.207 ± 0.076 | 0.159 ± 0.025 | 0.236 ± 0.12 | 0.139 ± 0.12 |
| CN1CCN(CCOc2cc(OC3CCOCC3)c3c(Nc4c(Cl)ccc5c4OCO5)ncnc3c2)CC1 [Saracatinib] | 0.156 ± 0.038 | 0.126 ± 0.041 | 0.155 ± 0.067 | 0.141 ± 0.028 | 0.159 ± 0.035 | 0.185 ± 0.024 | 0.121 ± 0.071 | 0.0918 ± 0.067 |
| CNC(=O)c1cc(Oc2ccc(NC(=O)Nc3ccc(Cl)c(C(F)(F)F)c3)cc2)ccn1 [Sorafenib] | 0.122 ± 0.014 | 0.106 ± 0.013 | 0.0823 ± 0.0072 | 0.123 ± 0.033 | 0.0375 ± 0.016 | 0.0266 ± 0.009 | 0.0957 ± 0.011 | 0.102 ± 0.068 |
| Cn1ncnc1[C@H]1c2n[nH]c(=O)c3cc(F)cc(c23)N[C@@H]1c1ccc(F)cc1 [Talazoparib] | 0.0908 ± 0.022 | 0.0937 ± 0.043 | 0.0688 ± 0.05 | 0.0443 ± 0.014 | 0.249 ± 0.036 | 0.275 ± 0.045 | 0.0426 ± 0.031 | 0.0374 ± 0.026 |
| CC/C(=C(\c1ccccc1)c1ccc(OCCN(C)C)cc1)c1ccccc1 [Tamoxifen] | 0.0883 ± 0.053 | 0.0314 ± 0.011 | 0.0364 ± 0.025 | 0.0524 ± 0.021 | 0.0279 ± 0.013 | 0.0235 ± 0.0053 | 0.0375 ± 0.013 | 0.0425 ± 0.025 |
| Cc1nc(-c2cn3c(n2)-c2ccc(-c4cnn(C(C)(C)C(N)=O)c4)cc2OCC3)n(C(C)C)n1 [Taselisib] | 0.413 ± 0.13 | 0.263 ± 0.14 | 0.158 ± 0.12 | 0.249 ± 0.059 | 0.0465 ± 0.018 | 0.0601 ± 0.017 | 0.0832 ± 0.048 | 0.0597 ± 0.055 |
| Cn1nnc2c(C(N)=O)ncn2c1=O [Temozolomide] | 0.0575 ± 0.021 | 0.0651 ± 0.031 | 0.0253 ± 0.0078 | 0.024 ± 0.0046 | 0.02 ± 0.0034 | 0.0234 ± 0.0089 | 0.028 ± 0.013 | 0.0261 ± 0.0071 |
| COc1cc2nccc(Oc3ccc(NC(=O)Nc4cc(C)on4)c(Cl)c3)c2cc1OC [Tivozanib] | 0.0203 ± 0.0013 | 0.0214 ± 0.0013 | 0.0321 ± 0.016 | 0.0237 ± 0.0055 | 0.0202 ± 0.0045 | 0.0228 ± 0.0062 | 0.0217 ± 0.0076 | 0.0262 ± 0.01 |
| Cc1cc(Nc2cc(N3CCN(C)CC3)nc(Sc3ccc(NC(=O)C4CC4)cc3)n2)n[nH]1 [Tozasertib] | 0.222 ± 0.09 | 0.228 ± 0.033 | 0.16 ± 0.076 | 0.123 ± 0.046 | 0.0578 ± 0.037 | 0.0466 ± 0.014 | 0.0983 ± 0.062 | 0.0668 ± 0.034 |
| CC(=O)Nc1cccc(-n2c(=O)n(C3CC3)c(=O)c3c(Nc4ccc(I)cc4F)n(C)c(=O)c(C)c32)c1 [Trametinib] | 0.207 ± 0.078 | 0.0946 ± 0.067 | 0.114 ± 0.065 | 0.146 ± 0.024 | 0.1 ± 0.019 | 0.0654 ± 0.02 | 0.0906 ± 0.051 | 0.0586 ± 0.043 |
| Cn1ncc(Cl)c1-c1cc(C(=O)N[C@H](CN)Cc2ccc(F)c(F)c2)oc1Cl [Uprosertib] | 0.218 ± 0.089 | 0.183 ± 0.08 | 0.177 ± 0.14 | 0.159 ± 0.027 | 0.0195 ± 0.0032 | 0.0257 ± 0.018 | 0.0769 ± 0.057 | 0.0584 ± 0.038 |
| CC1(C)CCC(CN2CCN(c3ccc(C(=O)NS(=O)(=O)c4ccc(NCC5CCOCC5)c([N+](=O)[O-])c4)c(Oc4cnc5[nH]ccc5c4)c3)CC2)=C(c2ccc(Cl)cc2)C1 [Venetoclax] | 0.0407 ± 0.02 | 0.0384 ± 0.018 | 0.0233 ± 0.0047 | 0.0331 ± 0.0083 | 0.0236 ± 0.007 | 0.0311 ± 0.022 | 0.0303 ± 0.0092 | 0.0357 ± 0.029 |
| CCC1=C[C@@H]2CN(C1)Cc1c([nH]c3ccccc13)[C@@](C(=O)OC)(c1cc3c(cc1OC)N(C)[C@H]1[C@@](O)(C(=O)OC)[C@H](OC(C)=O)[C@]4(CC)C=CCN5CC[C@]31[C@@H]54)C2 [Vinorelbine] | 0.153 ± 0.031 | 0.153 ± 0.039 | 0.0815 ± 0.04 | 0.107 ± 0.011 | 0.0831 ± 0.009 | 0.107 ± 0.024 | 0.0834 ± 0.05 | 0.095 ± 0.046 |
